Measured values published in the supplement of paper PMC10307832.

Legend:
Assay in all cases: relative viability (nuclei count vs DMSO), 5 days (fraction); higher = more cells survive
Idelalisib + Tozasertib = compound: CC[C@H](Nc1ncnc2[nH]cnc12)c1nc2cccc(F)c2c(=O)n1-c1ccccc1 [Idelalisib] + Cc1cc(Nc2cc(N3CCN(C)CC3)nc(Sc3ccc(NC(=O)C4CC4)cc3)n2)n[nH]1 [Tozasertib] (partner 0.1 µM)
In short: (§1)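 Lung cancer cell lines were pin-tool dosed in 1536-well plates on the day after seeding, with either a lone drug or a fixed anchor-drug dose plus five library-drug doses (not always all listed) in √10 steps. Nuclei were counted on 4× images after 5 days. Relative viability is the ratio of treated-well to vehicle-well nuclei counts, with each value a median of duplicate plates.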

Idelalisib + Dasatinib = compound: CC[C@H](Nc1ncnc2[nH]cnc12)c1nc2cccc(F)c2c(=O)n1-c1ccccc1 [Idelalisib] + Cc1nc(Nc2ncc(C(=O)Nc3c(C)cccc3Cl)s2)cc(N2CCN(CCO)CC2)n1 [Dasatinib] (partner 0.075 µM)
In short: as §1

Pemetrexed + Foretinib = compound: Nc1nc2[nH]cc(CCc3ccc(C(=O)N[C@@H](CCC(=O)O)C(=O)O)cc3)c2c(=O)[nH]1 [Pemetrexed] + COc1cc2c(Oc3ccc(NC(=O)C4(C(=O)Nc5ccc(F)cc5)CC4)cc3F)ccnc2cc1OCCCN1CCOCC1 [Foretinib] (partner 0.25 µM)
In short: as §1

Pemetrexed + Lapatinib = compound: Nc1nc2[nH]cc(CCc3ccc(C(=O)N[C@@H](CCC(=O)O)C(=O)O)cc3)c2c(=O)[nH]1 [Pemetrexed] + CS(=O)(=O)CCNCc1ccc(-c2ccc3ncnc(Nc4ccc(OCc5cccc(F)c5)c(Cl)c4)c3c2)o1 [Lapatinib] (partner 2 µM)
In short: as §1

| Cell Line | relative viability (Idelalisib + Tozasertib; first compound 0.04 µM) | relative viability (Idelalisib + Tozasertib; first compound 0.1265 µM) | relative viability (Idelalisib + Tozasertib; first compound 0.4 µM) | relative viability (Idelalisib + Tozasertib; first compound 1.265 µM) | relative viability (Idelalisib + Tozasertib; first compound 4 µM) | relative viability (Idelalisib + Dasatinib; first compound 0.04 µM) | relative viability (Idelalisib + Dasatinib; first compound 0.1265 µM) | relative viability (Idelalisib + Dasatinib; first compound 0.4 µM) | relative viability (Idelalisib + Dasatinib; first compound 1.265 µM) | relative viability (Idelalisib + Dasatinib; first compound 4 µM) | relative viability (Pemetrexed + Foretinib; first compound 0.002 µM) | relative viability (Pemetrexed + Foretinib; first compound 0.006325 µM) | relative viability (Pemetrexed + Foretinib; first compound 0.02 µM) | relative viability (Pemetrexed + Foretinib; first compound 0.06325 µM) | relative viability (Pemetrexed + Foretinib; first compound 0.2 µM) | relative viability (Pemetrexed + Lapatinib; first compound 0.002 µM) | relative viability (Pemetrexed + Lapatinib; first compound 0.006325 µM) | relative viability (Pemetrexed + Lapatinib; first compound 0.02 µM) | relative viability (Pemetrexed + Lapatinib; first compound 0.06325 µM) | relative viability (Pemetrexed + Lapatinib; first compound 0.2 µM) |
| --- | --- | --- | --- | --- | --- | --- | --- | --- | --- | --- | --- | --- | --- | --- | --- | --- | --- | --- | --- | --- |
| SW 900 | 0.69 | 0.539 | 0.542 | 0.605 | 0.594 | 0.497 | 0.543 | 0.417 | 0.543 | 0.326 | 0.908 | 0.77 | 0.874 | 0.688 | 0.588 |  |  |  |  |  |
| PC-3 [JPC-3] | 0.966 | 0.913 | 0.853 | 0.901 | 0.715 | 0.814 | 0.973 | 0.908 | 0.879 | 0.892 | 0.93 | 1.05 | 1.02 | 1.05 | 1.01 | 0.423 | 0.502 | 0.501 | 0.471 | 0.451 |
| NCI-H1703 |  |  |  |  |  |  |  |  |  |  | 0.304 | 0.283 | 0.415 | 0.345 | 0.369 | 1.02 | 0.865 | 1.59 | 0.9 | 0.976 |
| EPLC-272H | 0.212 | 0.227 | 0.242 | 0.212 | 0.222 | 0.277 | 0.293 | 0.293 | 0.271 | 0.291 | 0.648 | 0.609 | 0.774 | 0.678 | 0.573 | 0.806 | 1.04 | 1.16 | 0.972 | 1.04 |
| NCI-H1792 |  |  |  |  |  | 0.469 | 0.92 | 0.68 | 0.794 | 0.569 |  |  |  |  |  | 0.829 | 0.895 | 0.861 | 0.875 | 0.862 |
| NCI-H2085 | 0.915 | 0.779 | 0.8 | 0.641 | 0.692 | 0.244 | 0.19 | 0.188 | 0.246 | 0.19 | 1.03 | 0.737 | 1.11 | 0.966 | 1.17 | 0.717 | 0.692 | 0.88 | 0.801 | 0.768 |
| LK-2 | 0.178 | 0.165 |  | 0.18 | 0.164 | 0.277 | 0.294 |  | 0.273 | 0.283 | 1.09 | 0.984 | 1.25 | 1.2 | 1.11 | 0.863 | 0.877 | 1.13 | 0.775 | 0.521 |
| NCI-H1648 | 0.489 | 0.373 | 0.412 | 0.425 | 0.217 |  |  |  |  |  |  |  |  |  |  |  |  |  |  |  |
| NCI-H522 | 0.578 | 0.569 | 0.508 | 0.571 | 0.489 | 1.08 | 0.814 | 0.894 | 0.895 | 0.791 |  |  |  |  |  |  |  |  |  |  |
| EBC-1 |  |  |  |  |  |  |  |  |  |  | 0.117 | 0.112 | 0.107 | 0.0993 | 0.0915 | 0.22 | 0.193 | 0.205 | 0.214 | 0.192 |
| ChaGo-K-1 | 0.244 | 0.227 | 0.197 | 0.212 | 0.187 | 0.548 | 0.516 | 0.534 | 0.563 | 0.585 | 0.991 | 0.919 | 0.948 | 0.529 | 0.301 |  |  |  |  |  |
| NCI-H1299 |  |  |  |  |  |  |  |  |  |  | 1.08 | 1.15 | 1.12 | 1.09 | 0.595 | 0.926 | 0.92 | 0.964 | 0.955 | 0.918 |
| NCI-H1623 | 0.393 | 0.429 | 0.443 | 0.431 | 0.388 | 0.505 | 0.559 | 0.52 | 0.517 | 0.602 | 0.794 | 0.831 | 0.861 | 0.848 | 0.769 |  |  |  |  |  |
| NCI-H441 | 0.725 | 0.685 | 0.728 | 0.536 | 0.591 | 0.681 | 0.687 | 0.585 | 0.639 | 0.467 | 1.02 | 0.926 | 1.08 | 0.741 | 0.438 |  |  |  |  |  |
| LCLC-103H | 0.505 | 0.48 | 0.425 | 0.472 | 0.308 | 0.371 | 0.388 | 0.393 | 0.535 | 0.309 | 0.719 | 0.666 | 0.833 | 0.725 | 0.802 |  |  |  |  |  |
| HCC-44 | 0.879 | 1.02 | 0.762 | 0.866 | 0.756 |  |  |  |  |  |  |  |  |  |  | 0.928 | 1 | 1.03 | 1.02 | 0.874 |
| IA-LM |  |  |  |  |  |  |  |  |  |  | 1.05 | 1.1 | 1.05 | 1.14 | 0.829 | 0.719 | 0.869 | 1.03 | 0.827 | 0.636 |
| A549 |  |  |  |  |  |  |  |  |  |  | 0.935 | 0.902 | 1.08 | 1.02 | 0.925 | 0.841 | 0.947 | 1.13 | 0.987 | 0.973 |
| NCI-H1563 |  |  |  |  |  | 0.473 | 0.491 | 0.472 | 0.496 | 0.388 | 0.822 | 0.87 | 1.01 | 0.909 | 0.919 | 0.83 | 0.804 | 0.921 | 0.971 | 0.986 |
| Calu-6 |  |  |  |  |  |  |  |  |  |  | 0.821 | 0.877 | 0.95 | 0.888 | 0.845 | 1.09 | 1.02 | 1.18 | 0.999 | 0.84 |
| NCI-H2342 | 0.44 | 0.556 | 0.44 | 0.455 | 0.397 | 0.358 | 0.316 | 0.324 | 0.304 | 0.327 | 0.997 | 1.08 | 0.94 | 1.05 | 0.915 |  |  |  |  |  |
